The text below walks through data of patent publication US11166944B2 (AI Therapeutics, priority 2014, dated 2021).

Data set [1] relates to renal clear cell carcinoma cell line 769-P. As to the kind of experiment: Antiproliferative single treatment study (CellTiterGlo, 120 h). Particulars: Homo sapiens, read-out: IC50 (Avg., n=2). The class given is cell-based. The method, then: (§1) All drug dilutions were made up as a 2× stock and 50 μL added to appropriate wells. Cells were treated for 120 h before viability was assessed using CellTiterGlo® (Promega) where the relative luminescence of untreated cells was set to 100% viability and each drug concentration expressed as a percentage of untreated cells. EC50 values were determined using GraphPad Prism (GraphPad Software, Inc). Briefly, raw data was log transformed and then analyzed using nonlinear regression (curve fit) where the data were constrained (bottom=0, top=100).
On the technique in general: In ATP-based viability assays light output follows the ATP content of the culture.

The test system of data set [2] is renal clear cell carcinoma cell line 786-O. The data set is described as above. The format is cell-based. Particulars: Homo sapiens, 786-0, read-out: IC50 (Avg., n=2). The method, then:
as §1

Data set [3] deals with renal clear cell carcinoma cell line A704. The data set is described as above. The format is cell-based. The following applies: Homo sapiens, A704, 120 h, read-out: IC50 (Avg., n=2). The method, then:
as §1

In data set [4] the test system is renal clear cell carcinoma cell line RCC-ER. Described as above. The format is cell-based. The following applies: read-out: IC50 (Avg., n=2). On the procedure:
as §1

For data set [5], the system named is renal clear cell carcinoma cell line RCC-FG2. Described as above. Particulars: read-out: IC50 (Avg., n=2); RCC-FG2, 120 h. The class given is cell-based. The method, then:
as §1

Data set [6] has as its system renal clear cell carcinoma cell line RCC-JF. The description is as above. The format is cell-based. The following applies: read-out: IC50 (Avg., n=2). The method, then:
as §1

In data set [7] the test system is renal clear cell carcinoma cell line RCC-JW. The description is as above. The class given is cell-based. The following applies: read-out: IC50 (Avg., n=2). On the procedure: as §1
The test system of data set [8] is renal clear cell carcinoma cell line RCC-MF. Described as above. The format is cell-based. Particulars: read-out: IC50 (Avg., n=2). On the procedure:
as §1

For a further data set, the system named is H4. As to the kind of experiment: Cell viability dose response. The format is cell-based. Particulars: Homo sapiens, H4, Human neuroglioma. The source says: (§2) 35 cell lines were identified as sensitive to apilimod-induced cytotoxicity.
(§3) Autophagy was quantified using the Cyto-ID Autophagy detection kit (Enzo) according to manufacturer's directions.
No statistically significant relationship was found with the sole exception of IL-23A (p=0.022). […] Importantly, the statistical significance of IL-23A expression in sensitive cancer lines appears to be driven entirely by just two colon cancer lines. Furthermore IL-23A expression is not a statistically significant predictor of sensitivity in Non-Hodgkin's B cell lymphoma.

In data set [9] the test system is (TSC2+/−, p53−/−) MEF line. Briefly: 10-point dose response viability (CellTiter-Glo, 72 hours). Particulars: Mus musculus; MEF TSC2+/− p53−/− as counterpart of TSC2−/− p53−/−; average of two experiments; read-out: IC50 TSC2 rescue (viability). The format is cell-based. The source says:
(§4) See e.g., Zhang et al. J. Clin. Invest. 112, 1223-33, 2003. (2) ELT3-EV and ELT3-TSC2 lines were established from the ELT3 rat tumor cell line. The ELT3 line is an established rat tumor model for LAM/TSC. See e.g., Howe et al., Am. J. Path. 146, 1568-79, 1995. These cells harbor an inactivating mutation in TSC2, which leads to constitutive activation of the mTOR pathway. To develop an isogenic pair of cells ELT3 cells were infected with a retrovirus vector encoding the hygromycin antibiotic resistance gene (ELT3-EV) or the same retrovirus vector also encoding TSC2 (ELT3-TSC2). The ELT3-EV and ELT3-TSC2 line were then established by hygromycin selection. (3) TRI-AML102 and AML103 lines were established from a TSC2 null primary human AML sample provided by Dr. Elizabeth Henske (Fox Chase Cancer Center, Philadelphia, Pa.). The cells were infected with amphotropic retrovirus LXSN16E6E7 that encodes the HPV16 E6 and E7 open reading frames and neomycin resistance cassette. Cells were expanded and neomycin-selected. Individual clones were isolated and frozen down. The coding sequence for the human Telomerase gene (hTERT) with hygromycin resistance cassette (pLXSN hTERT-hyg plasmid) was stably expressed into a TSC2^−/− confirmed E6E7 AML clone using Fugene6 transfection reagent (Roche Applied Science, Indianapolis, Ind.). TRI-AML102 was generated by stable incorporation of a control zeomycin selection plasmid (pcDNA3.1-zeo), while TRI-AML103 expresses the human TSC2 cDNA pcDNA3.1-zeo plasmid. As a result of these engineering processes, both TRI102 and TRI103 are neomycin, hygromycin, and zeomycin resistant lines.
(§5) IC50 values were then calculated from the dose response curves using XLFIT (IDBS).

The test system of data set [10] is (TSC2−/−, p53−/−) MEF line. Described as above. Particulars: Mus musculus, average of two experiments. The class given is cell-based.
Text: as §4, §5

A further data set concerns ELT3-EV cells. The data set is described as above. The class given is cell-based. The following applies: Rattus norvegicus, average of two experiments, read-out: IC50 TSC2−/− (viability).
Text: as §4, §5

In a further data set the test system is ELT3-TSC2 cells. The description is as above. The class given is cell-based. The following applies: Rattus norvegicus; ELT3 rescue line; average of two experiments.
Text: as §4, §5

A further data set deals with MEF-EV (TSC2−/−) cells. The description is as above. The format is cell-based. The following applies: Mus musculus, average of two experiments.
Text: as §4, §5

The test system of data set [11] is MEF-TSC2 (TSC2 rescue) cells. The data set is described as above. The format is cell-based. Particulars: Mus musculus; MEF TSC2 rescue line; average of two experiments.
Text: as §4, §5

The subject of data set [12] is TRI-AML102 (TSC2 null AML) cells. Described as above. The format is cell-based. Particulars: Homo sapiens; AML column; average of two experiments.
Text: as §4, §5

In data set [13] the test system is TRI-AML103 (TSC2 rescue AML) cells. The description is as above. The format is cell-based. The following applies: Homo sapiens; AML column, rescue line; average of two experiments.
Text: as §4, §5

A further data set relates to normal lung fibroblasts. As to the kind of experiment: Cytotoxicity in normal cells. Particulars: concentrations as high as 10 micromolar. The format is cell-based.
Text: as §2

Another data set deals with H4 neuroglioma cell line. As to the kind of experiment: Autophagic vacuoles (Cyto-ID Autophagy detection kit). The format is cell-based, human. Particulars: H4 cells, 72 hours of treatment.
Text: as §3

In another data set the target is T1, Vac14 (Homo sapiens, UniProt Q08AM6).
T1 construct: endogenous in cells; host or cells: H4 human neuroglioma cells (whole cell lysate)
T1 sequence (Q08AM6 whole entry): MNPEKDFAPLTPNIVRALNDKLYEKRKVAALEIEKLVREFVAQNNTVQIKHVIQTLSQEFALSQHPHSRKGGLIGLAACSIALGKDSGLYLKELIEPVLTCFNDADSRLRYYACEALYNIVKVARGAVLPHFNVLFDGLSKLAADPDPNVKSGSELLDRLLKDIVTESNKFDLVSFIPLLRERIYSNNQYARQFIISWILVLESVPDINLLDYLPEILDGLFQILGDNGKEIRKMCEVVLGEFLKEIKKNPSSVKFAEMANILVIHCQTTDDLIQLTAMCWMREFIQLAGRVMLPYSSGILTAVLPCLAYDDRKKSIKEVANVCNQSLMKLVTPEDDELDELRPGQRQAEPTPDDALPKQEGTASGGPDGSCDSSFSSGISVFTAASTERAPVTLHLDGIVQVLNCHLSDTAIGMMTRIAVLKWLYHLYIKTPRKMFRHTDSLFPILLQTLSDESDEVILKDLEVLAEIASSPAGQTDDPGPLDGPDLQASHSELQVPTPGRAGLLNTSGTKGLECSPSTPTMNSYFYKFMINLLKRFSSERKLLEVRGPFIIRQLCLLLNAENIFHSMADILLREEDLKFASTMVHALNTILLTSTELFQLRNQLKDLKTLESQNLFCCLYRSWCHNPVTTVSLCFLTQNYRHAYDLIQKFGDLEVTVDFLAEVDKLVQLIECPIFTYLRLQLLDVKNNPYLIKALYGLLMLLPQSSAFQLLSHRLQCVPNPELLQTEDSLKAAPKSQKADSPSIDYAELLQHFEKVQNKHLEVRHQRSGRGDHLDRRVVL
T1 sequence (Q9Y2I7 2-2098 partner): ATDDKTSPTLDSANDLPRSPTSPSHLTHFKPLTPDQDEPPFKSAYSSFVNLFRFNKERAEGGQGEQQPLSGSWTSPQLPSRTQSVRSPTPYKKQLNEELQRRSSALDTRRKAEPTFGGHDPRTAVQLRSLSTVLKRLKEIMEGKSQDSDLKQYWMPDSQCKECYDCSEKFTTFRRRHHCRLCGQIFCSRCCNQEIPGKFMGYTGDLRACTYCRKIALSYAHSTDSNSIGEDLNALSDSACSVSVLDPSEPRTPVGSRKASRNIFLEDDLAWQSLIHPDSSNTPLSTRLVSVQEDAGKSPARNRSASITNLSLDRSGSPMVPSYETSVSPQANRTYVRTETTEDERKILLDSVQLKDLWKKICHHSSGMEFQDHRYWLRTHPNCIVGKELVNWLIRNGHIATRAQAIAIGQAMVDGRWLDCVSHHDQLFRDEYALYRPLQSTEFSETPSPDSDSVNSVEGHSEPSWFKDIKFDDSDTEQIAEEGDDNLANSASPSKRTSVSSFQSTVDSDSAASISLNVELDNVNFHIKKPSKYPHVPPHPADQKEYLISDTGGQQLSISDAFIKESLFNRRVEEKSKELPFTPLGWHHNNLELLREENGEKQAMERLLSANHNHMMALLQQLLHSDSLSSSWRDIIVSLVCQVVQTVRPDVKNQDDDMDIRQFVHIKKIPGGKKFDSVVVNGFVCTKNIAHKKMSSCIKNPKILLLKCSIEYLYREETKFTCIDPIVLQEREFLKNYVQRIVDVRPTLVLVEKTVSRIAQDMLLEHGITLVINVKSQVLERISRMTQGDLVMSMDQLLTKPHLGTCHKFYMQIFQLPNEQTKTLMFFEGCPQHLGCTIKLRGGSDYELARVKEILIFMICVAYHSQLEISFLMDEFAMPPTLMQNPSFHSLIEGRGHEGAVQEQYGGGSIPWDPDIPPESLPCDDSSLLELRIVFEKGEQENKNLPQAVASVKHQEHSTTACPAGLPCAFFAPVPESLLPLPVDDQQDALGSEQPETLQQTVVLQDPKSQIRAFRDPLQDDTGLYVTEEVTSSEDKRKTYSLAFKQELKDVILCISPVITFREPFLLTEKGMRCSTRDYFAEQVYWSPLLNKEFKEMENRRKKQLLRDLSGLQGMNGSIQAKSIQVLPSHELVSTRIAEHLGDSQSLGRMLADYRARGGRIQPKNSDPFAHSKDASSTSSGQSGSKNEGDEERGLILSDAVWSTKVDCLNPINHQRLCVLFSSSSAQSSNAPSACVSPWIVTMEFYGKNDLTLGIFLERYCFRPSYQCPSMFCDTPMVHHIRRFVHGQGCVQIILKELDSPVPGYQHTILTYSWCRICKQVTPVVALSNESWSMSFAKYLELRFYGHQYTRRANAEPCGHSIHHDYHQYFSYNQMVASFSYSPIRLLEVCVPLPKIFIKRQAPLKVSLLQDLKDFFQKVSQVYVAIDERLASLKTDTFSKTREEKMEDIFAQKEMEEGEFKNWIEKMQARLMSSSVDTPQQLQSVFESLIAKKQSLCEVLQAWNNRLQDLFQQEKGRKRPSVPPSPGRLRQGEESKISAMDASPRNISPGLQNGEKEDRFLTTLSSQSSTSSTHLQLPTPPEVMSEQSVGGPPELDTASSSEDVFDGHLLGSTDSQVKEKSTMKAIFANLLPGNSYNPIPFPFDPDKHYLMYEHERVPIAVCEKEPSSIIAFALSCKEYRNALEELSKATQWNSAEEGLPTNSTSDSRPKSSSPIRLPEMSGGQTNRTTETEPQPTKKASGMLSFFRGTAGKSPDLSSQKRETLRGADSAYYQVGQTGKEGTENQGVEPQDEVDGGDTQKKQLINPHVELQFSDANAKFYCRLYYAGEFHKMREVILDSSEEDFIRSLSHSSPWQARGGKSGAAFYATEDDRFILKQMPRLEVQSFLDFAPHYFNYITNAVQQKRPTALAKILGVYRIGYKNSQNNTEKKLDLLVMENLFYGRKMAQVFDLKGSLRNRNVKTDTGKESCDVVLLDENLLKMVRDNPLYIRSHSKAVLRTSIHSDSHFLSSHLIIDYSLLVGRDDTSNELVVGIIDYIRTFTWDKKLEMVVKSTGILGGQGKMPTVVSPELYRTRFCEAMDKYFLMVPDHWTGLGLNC
As to the kind of experiment: Chemical capture mass spectrometry (CCMS) in H4 whole cell lysate. The format is binding. Particulars: apilimod as competitor ligand. The method, then:
This work was performed at Caprotec Bioanalytics GmbH, Berlin Germany. See Michaelis et al., J. Med. Chem., 55 3934-44 (2012) and references cited therein.
Capture conditions were optimized in whole cell lysate from H4 (human neuroglioma) cancer cells, e.g. minimization of non-specific interactions of the proteins with capture compounds, concentration of reagents and proteins to obtain maximum binding of proteins and capture compounds, etc. […] These specific binders were further subjected to stringent data analysis criteria to determine specificity after unbiased data evaluation. Specific protein binders were ranked according to their fold change (FC) values in the capture experiments.

In data set [14] the test system is peripheral blood mononuclear cells. The following applies: cited from earlier work.
The next data set deals with U937. The following applies: cited from earlier work.
In a further data set the test system is HELA. Particulars: cited from earlier work.
The test system of a further data set is Jurkat. The following applies: cited from earlier work.
Another data set concerns THP-1. Particulars: cited from earlier work.
The test system of data set [15] is patients with rheumatoid arthritis. The following applies: Phase II; cited from earlier work.

For the molecule `Cc1cccc(/C=N/Nc2cc(N3CCOCC3)nc(OCCc3ccccn3)n2)c1` [LAM-002], the IC50 was determined as 44 nM in data set [1]; 71 nM in data set [2]; 11 nM in data set [3]; 9 nM in data set [4]; 32 nM in [5]; 60 nM in data set [6]. For the same molecule, the IC50 was found to be 27 nM in data set [7] and 8 nM in [8].

With `Cc1cccc(/C=N/Nc2cc(N3CCOCC3)nc(OCCc3ccccn3)n2)c1` [apilimod], the IC50 is 250 to 300 nM with H4; 70.7 nM in data set [9]; 28.8 nM in data set [10]; 13.7 nM in the data set on ELT3-EV cells; 16.1 nM in the data set with ELT3-TSC2 cells; 19.7 nM in the data set on MEF-EV (TSC2−/−) cells. For the same molecule, the IC50 in [11] came out at 20.1 nM; in [12] it was 117 nM; in data set [13], 132 nM. Also, the “sensitivity to apilimod-induced cytotoxicity” value in the data set on normal lung fibroblasts is recorded as “not sensitive”. Besides, the “autophagy (autophagic vacuoles)” value in the data set with H4 neuroglioma cell line is “induces autophagy in a dose-dependent manner”. For the same molecule, the “log (FC)” value at Vac14 (capture compound 0.1 μM) is given as 6.2; at Vac14 (capture compound 0.5 μM), 5.6; at Vac14 (capture compound 1.0 μM), “Inf”; on Vac14 (capture compound 2.0 μM), 3.9. For the same molecule, the cytotoxicity result (in [14]; in the data set with U937; with HELA; in the data set on Jurkat; in the data set with THP-1) was “not cytotoxic” throughout. Moreover, in data set [15], the “synovial IL-12 and IL-23 expression” value is “failed to alter synovial IL-12 and IL-23 expression”.
